Data reported in patent publication US20220048915A1 (SHANGHAI PHARMACEUTICALS HOLDING CO., LTD., priority 2018, published 2022).

Columns and labels:
p38α = p38α (Homo sapiens, UniProt Q16539); assay: In vitro inhibition of p38 kinase (LANCE Ultra TR-FRET); assay type: biochemical; conditions: read-out: Kinase in vitro IC50(nM) p38α
p38β = p38β (Homo sapiens, UniProt Q15759); assay: as above; assay type: biochemical; conditions: read-out: Kinase in vitro IC50(nM) p38β
p38γ = biological target: T1, p38γ (Homo sapiens, UniProt P53778); assay: as above; assay type: biochemical; conditions: read-out: Kinase in vitro IC50(nM) p38γ
T1 sequence (P53778 1-367): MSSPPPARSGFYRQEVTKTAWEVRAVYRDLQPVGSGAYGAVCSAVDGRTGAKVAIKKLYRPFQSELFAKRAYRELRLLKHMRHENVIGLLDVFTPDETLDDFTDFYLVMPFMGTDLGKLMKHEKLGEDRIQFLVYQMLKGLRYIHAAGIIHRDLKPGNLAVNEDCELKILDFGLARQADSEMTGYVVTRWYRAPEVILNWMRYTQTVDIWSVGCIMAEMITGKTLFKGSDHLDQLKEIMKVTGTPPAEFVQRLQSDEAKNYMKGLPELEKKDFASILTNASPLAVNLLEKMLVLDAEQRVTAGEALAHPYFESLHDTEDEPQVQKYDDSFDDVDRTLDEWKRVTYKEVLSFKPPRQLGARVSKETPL
Experimental: 10 mM of the storage solution of the test compound was taken and placed in a 96-well compound plate, and using DMSO for the compound at an initial concentration of 100×, which was then used as the first concentration and then carried out a 3-fold gradient dilution with DMSO for a total of 10 concentrations. After that, 1 μL of gradient dilutions were added to 19 μL of 1× reaction buffer to prepare 5× compound for later use. […] To the compound-free control well was added 2 μL of the following liquid: 19 μL of 1× reaction buffer with addition of 1 μL of DMSO. To the Min control well was added 2 μL of 250 mM EDTA.
1× of LANCE® Detection value Buffer was used to prepare a 2×Antibody for use, and the amount was 5 μL per well, at the same time 10 mM EDTA was prepared for later use. After the enzyme reaction was carried out for 30 minutes, 5 μL 10 mM EDTA was added to the 384-well plate and the reaction was carried out at room temperature for 5 minutes. Afterwards, 5 μL LANCE® Ultra Europium-anti-phospho-eIF4E-binding protein 1 (Thr37/46) was added to the 384-well plate and the reaction was carried out at room temperature for one hour.

BV-2 cells = assay: Inhibition of inflammation in LPS-stimulated BV-2 cells (ELISA of inflammatory factors); assay type: cell-based; conditions: Mus musculus, 100 ng/mL LPS 4 hours; for Emax: read-out: BV-2 Max Inh. (%); for IC50: read-out: BV-2 Rf IC50
Experimental: Normal cultured 8th passage BV-2 cells were taken, and inoculated separately in 96-well plates at a certain cell density. The cell culture plates were cultured at 37° C. and 5% CO2 for 24 hours.
After inoculating the plate for 24 hours, the cell culture medium was removed, and then 100 μL of a 4-fold gradient dilution compound starting from 10,000 nM prepared in DMEM+10% FBS, where High control and Low control contained 0.1% DMSO without compound. With 100 μL per well, the cell culture plate was cultured at 37° C. with 5% CO2 for one hour.
The compound-containing cultures were removed. 100 ng/mL of LPS was prepared with DMEM+10% FBS culture medium, and then the compound was diluted in a 4-fold gradient from 10,000 nM with LPS-containing culture medium. In low control, the compound was replaced with 0.1% DMSO. In High control, 0.1% DMSO was prepared with culture medium without LPS. 100 μL per well, and the cell culture plates were cultured at 37° C. with 5% CO2 for 4 hours.
After 4 hours of LPS stimulation, 110 μL of the culture solution was aspirated, and centrifuged at 2000 rpm for 2 minutes. A further 90 μl of supernatant was aspirated and immediately put into −20° C. for freezing.
ELISA kits were used to detect the expression of inflammatory factors such as IL-10, TNFα, etc. The OD450 signal values were measured by microplate reader. The in vitro inhibitory activity of the compounds was calculated according to the following formula: Inhibition rate: Inhibition rate (%)=(signal value of control−signal value of administration)/(high signal value of control−low signal value of control)×100%. And according to the inhibition rate of each concentration, Graphpad Prism 5.0 was used to curve fit the […] signal values at each concentration and calculate the corresponding IC50, which is shown in Table 1.

[1] = Pharmacokinetic properties in rats; assay type: in vivo, SD rats; conditions: for Cmax / MRT / Tmax: male, SD, plasma; for Cmax / MRT / Tmax / Thalf (iv) / BA / AUClast (po): rat; for Cmax / MRT / Tmax / AUClast (po): po 6 mg/kg; for Thalf (iv): iv 3 mg/kg; for BA: po 6 mg/kg vs iv 3 mg/kg; for AUClast (po): 5-1440 minutes; for absorption compared with the positive compound VX-745 at the same dose: rats, 6 mg/kg
Experimental: Ten male SD rats, weighing 180-220 g (provided by Shanghai Xipuerbikai Laboratory Animal Co., Ltd, Certificate No.: 20130016008116). The rats were fasted for feed for 12-16 hours before the experiment but water was allowed.
Blood samples were collected from the fundus vein of rats before and at 2, 5, 15, 30, 60, 90, 120, 240, 360, 480, 600 and 1440 minutes after administration, respectively.
Blood samples were collected from the fundus vein of rats before and at 5, 15, 30, 60, 90, 120, 240, 360, 480, 600, 1440 minutes after administration respectively.
(§1) Blood samples were centrifuged at 8000 rpm for 5 minutes, and supernatant plasma was taken. To 50 μL of plasma samples was added 300 μL of acetonitrile containing internal standard (propranolol, 25 ng/mL) to precipitate the protein. After vortexing for 10 minutes and centrifuging at 6000 g and 4° C. for 10 minutes, the supernatant was taken and placed in a 96-well plate for determination of drug concentration in plasma by UPLC/MS-MS.

[2] = Pharmacokinetic properties in mice; assay type: in vivo, ICR mice; conditions: for absorption compared with the positive compound VX-745 at the same dose: 10 mg/kg; for Thalf (iv): iv 3 mg/kg; for Cmax / MRT / Tmax: male, ICR, mouse, plasma; for Cmax / MRT / Tmax / AUClast (po): po 10 mg/kg; for BA: po 10 mg/kg vs iv 3 mg/kg; for AUClast (po): 5-1440 minutes
Experimental: Forty-eight male ICR mice, weighing 18-22 g (provided by Shanghai Xipuerbikai Laboratory Animal Co., Ltd, Certificate No.: 20130016008116). The mice were […] for 12-16 hours before the experiment but water was allowed.
Blood samples were collected from the fundus vein of mice before and at 2, 5, 15, 30, 60, 90, 120, 240, 480, 600, and 1440 minutes of the administration, respectively.
Blood samples were collected from the fundus vein of mice before and at 5, 15, 30, 60, 90, 120, 240, 480 and 1440 minutes of administration, respectively.
2-3 time points were taken for each mouse. The mice were sacrificed at 5, 15, 30, 60 and 1440 minutes after the administration (3 mice per time point), and the brains were taken, rinsed with saline, dried on filter paper and weighed.
as §1

p38β, sequence (Q15759 whole entry): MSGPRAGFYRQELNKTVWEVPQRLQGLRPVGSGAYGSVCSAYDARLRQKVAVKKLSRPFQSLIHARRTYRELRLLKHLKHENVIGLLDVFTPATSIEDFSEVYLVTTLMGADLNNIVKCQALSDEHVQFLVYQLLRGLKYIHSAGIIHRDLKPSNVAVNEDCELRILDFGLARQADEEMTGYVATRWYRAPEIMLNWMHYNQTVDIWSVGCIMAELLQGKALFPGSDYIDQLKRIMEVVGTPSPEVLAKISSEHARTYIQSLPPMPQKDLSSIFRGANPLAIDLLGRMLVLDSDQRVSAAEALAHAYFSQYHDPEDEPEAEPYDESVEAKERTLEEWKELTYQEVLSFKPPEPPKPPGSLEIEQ
p38α, sequence (Q16539 whole entry): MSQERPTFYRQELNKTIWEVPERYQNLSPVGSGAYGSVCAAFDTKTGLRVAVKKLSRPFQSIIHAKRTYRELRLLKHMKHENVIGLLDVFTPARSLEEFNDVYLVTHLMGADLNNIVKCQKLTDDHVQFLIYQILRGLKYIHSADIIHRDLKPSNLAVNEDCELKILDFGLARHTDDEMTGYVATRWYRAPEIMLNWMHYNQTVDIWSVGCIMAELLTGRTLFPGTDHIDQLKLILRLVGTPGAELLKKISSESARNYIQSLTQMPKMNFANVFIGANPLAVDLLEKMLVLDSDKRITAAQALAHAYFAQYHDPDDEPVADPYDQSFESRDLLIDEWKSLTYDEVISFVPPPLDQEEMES

IC50 (p38α) [nM]	IC50 (p38β) [nM]	IC50 (p38γ) [nM]	IC50 (BV-2 cells) [nM]	Cmax [1] [ng/mL]	MRT [1] [h]	Tmax [1] [h]	Thalf (iv) [1] [h]	BA [1] [%]	AUClast (po) [1]	absorption compared with the positive compound VX-745 at the same dose [1]	absorption compared with the positive compound VX-745 at the same dose [2]	Thalf (iv) [2] [h]	Cmax [2] [ng/mL]	MRT [2] [h]	Tmax [2] [h]	BA [2] [%]	AUClast (po) [2]	SMILES	Emax (BV-2 cells) [%]
22.4	391	> 3330	53.8	1090	5.73	3	2.81	87.87	7172 (h)*(ng/mL)	significantly higher	significantly higher	3.73	1820	5.55	1.33	158.7	11457 (h)*(ng/mL)	O=c1ncn2nc(Oc3ccc(F)cc3)ccc2c1-c1c(Cl)cccc1Cl [Compound I-19, 5-(2,6-dichlorophenyl)-2-(4-fluorophenoxy)-6H-pyrimido[1,6-b]pyridazin-6-one]	61.7
31.3	150	> 3330	18.3	–	–	–	–	–	–	–	–	–	–	–	–	–	–	O=c1ncn2nc(Oc3cc(Cl)ccc3Cl)ccc2c1-c1c(Cl)cccc1Cl [Compound I-22, 2-(2,5-dichlorophenoxy)-5-(2,6-dichlorophenyl)-6H-pyrimido[1,6-b]pyridazin-6-one]	53.6
46.9	243	> 3330	17.2	–	–	–	–	–	–	–	–	–	–	–	–	–	–	O=c1ncn2nc(Oc3cccc(F)c3F)ccc2c1-c1c(Cl)cccc1Cl [Compound I-23, 5-(2,6-dichlorophenyl)-2-(2,3-difluorophenoxy)-6H-pyrimido[1,6-b]pyridazin-6-one]	-50
11.7	109	> 3330	18.8	–	–	–	–	–	–	–	–	–	–	–	–	–	–	O=c1ncn2nc(Oc3ccccc3F)ccc2c1-c1c(Cl)cccc1Cl [Compound I-27, 5-(2,6-dichlorophenyl)-2-(2-fluorophenoxy)-6H-pyrimido[1,6-b]pyridazin-6-one]	41.9
34.1	406	> 3330	678	–	–	–	–	–	–	–	–	–	–	–	–	–	–	O=c1ncn2nc(Oc3c(F)ccc(F)c3Cl)ccc2c1-c1c(Cl)cccc1Cl [Compound I-29, 2-(2-chloro-3,6-difluorophenoxy)-5-(2,6-dichlorophenyl)-6H-pyrimido[1,6-b]pyridazin-6-one]	-50
35.6	602	> 3330	296	–	–	–	–	–	–	–	–	–	–	–	–	–	–	O=c1ncn2nc(Oc3ccc(Br)cc3)ccc2c1-c1c(Cl)cccc1Cl [Compound I-39, 2-(4-bromophenoxy)-5-(2,6-dichlorophenyl)-6H-pyrimido[1,6-b]pyridazin-6-one]	56.6
23	111	> 3330	41.5	–	–	–	–	–	–	–	–	–	–	–	–	–	–	O=c1ncn2nc(Oc3ccc(F)c(F)c3F)ccc2c1-c1c(Cl)cccc1Cl [Compound I-40]	47.7
10.7	95.1	> 3330	21.5	601	4.7	4	3.7	123.3	2994 (h)*(ng/mL)	better	better	2.97	1280	4.34	2	89.17	6540 (h)*(ng/mL)	O=c1ncn2nc(Oc3cc(F)c(F)cc3F)ccc2c1-c1c(Cl)cccc1Cl [Compound I-43]	50.9
14.8	111	> 3330	12.4	–	–	–	–	–	–	–	–	–	–	–	–	–	–	CC(C)N1CCN(c2cc3c(-c4c(Cl)cccc4Cl)c(=O)ncn3nc2Oc2ccc(F)cc2F)CC1 [Compound I-60, 5-(2,6-dichlorophenyl)-2-(2,4-difluorophenoxy)-3-(4-isopropylpiperazin-1-yl)-6H-pyrimido[1,6-b]pyridazin-6-one]	34.5
12.1	101	> 3330	14.2	–	–	–	–	–	–	–	better	3.32	1600	3.18	1	103.4	4522 (h)*(ng/mL)	O=c1ncn2nc(Oc3ccc(F)cc3F)ccc2c1-c1c(F)cccc1Cl [Compound I-62, 5-(2-chloro-6-fluorophenyl)-2-(2,4-difluorophenoxy)-6H-pyrimido[1,6-b]pyridazin-6-one]	48.6
